PMC6985712 (Antimicrobial Agents and Chemotherapy, 2020)
Read-outs that look alike come from different tables or passages of the source.

How the values were obtained:
[1] = biological target: T1, KPC-2 (Klebsiella pneumoniae, UniProt Q9F663); experiment: k2/K inactivation constant, reporter substrate method; assay type: biochemical
Procedure: Inactivation kinetic parameters were determined by using the reporter substrate method for the slow tight-binding inhibitor kinetic scheme ([38]). E + I ↔K EI ↔k−2k2 EI*
(§1) Protein was quickly mixed with 100 μM nitrocefin and various concentrations of BLI in reaction buffer, and the absorbance at 490 nm was measured immediately every 2 s for 180 s on a SpectraMax plate reader (Molecular Devices, San Jose, CA) at 37°C. The resulting progression curves of OD490 versus time at various BLI concentrations were imported into Prism software (GraphPad, San Diego, CA), and pseudo first-order rate constants kobs were calculated by using the following equation: P = Vs ⋅ (1 – e^–^k^obs ⋅ ^t)/kobs, where Vs is the enzyme NCF cleavage rate in the absence of BLI.

[2] = tested on: ADC-7, KPC-2, and SHV-1; design: method as in PMID 26729491, PMID 26729496; details: cited from earlier work
[3] = biological target: T1, KPC-2; experiment: Stability of inhibitor after incubation with KPC-2, LC/MS; assay type: biochemical; details: for degradation/hydrolysis of inhibitor by KPC-2: 1 µM inhibitor and 1 µM KPC-2, 37 °C, reaction buffer, 18 hours, LC/MS
[4] = biological target: T1, KPC-2; experiment: Kiapp determination with nitrocefin (method of Waley); assay type: biochemical; details: recombinant His-tagged enzyme; 10 min incubation at 37°C; 50 μM NCF
Procedure: (§2) The protein was mixed with various concentrations of inhibitors in 50 mM sodium phosphate (pH 7.0) and 0.1 mg/ml of bovine serum albumin buffer (reaction buffer), followed by incubation for 10 min at 37°C. Next, 50 μM nitrocefin (NCF; 10 μM for SHV-12 and 25 μM for BKC-1) was added, and substrate cleavage profiles were recorded at 490 nm every 10 s for 10 min. […] Kiapp values were calculated by method of Waley ([24]).

[5] = biological target: OXA-23 (Acinetobacter baumannii, UniProt Q9L4P2); experiment: as above; assay type: biochemical; details: recombinant His-tagged enzyme; 10 min incubation at 37°C; 50 μM NCF
Procedure: as §2

[6] = biological target: T2, AmpC (Enterobacter cloacae, UniProt P05364); experiment: as above; assay type: biochemical; details: recombinant His-tagged enzyme; 10 min incubation at 37°C; 50 μM NCF
T2 construct: His tag; purchased Emerald Biostructures (Bainbridge Island, WA)
Procedure: as §2

[7] = biological target: T3, CTX-M-14 (Escherichia coli, UniProt Q9L5C7); experiment: as above; assay type: biochemical; details: recombinant His-tagged enzyme; 10 min incubation at 37°C; 50 μM NCF
T3 construct: His tag; purchased Emerald Biostructures (Bainbridge Island, WA)
Procedure: as §2

[8] = biological target: T4, FRI-1 (Enterobacter cloacae, UniProt A0A0M5L4T8); experiment: as above; assay type: biochemical; details: recombinant His-tagged enzyme; 10 min incubation at 37°C; 50 μM NCF
Procedure: as §2

[9] = biological target: T5, VIM-1 (Pseudomonas aeruginosa, UniProt A0A0F7KYQ8); experiment: as above; assay type: biochemical
T5 construct: His tag; purchased Emerald Biostructures (Bainbridge Island, WA)
Procedure: as §2

[10] = biological target: T6, OXA-48 (Klebsiella pneumoniae, UniProt Q6XEC0); experiment: as above; assay type: biochemical; details: recombinant His-tagged enzyme; 10 min incubation at 37°C; 50 μM NCF
T6 construct: His tag; purchased Emerald Biostructures (Bainbridge Island, WA)
Procedure: as §2

[11] = biological target: T7, SHV-12 (Klebsiella pneumoniae, UniProt P0AD64, E235K/G234S/L31Q); experiment: as above; assay type: biochemical; details: recombinant His-tagged enzyme; 10 min incubation at 37°C; 10 μM NCF
T7 construct: His tag; purchased Emerald Biostructures (Bainbridge Island, WA)
Procedure: as §2

[12] = biological target: T8, KPC-3 (Klebsiella pneumoniae, UniProt Q9F663, H272Y); experiment: as above; assay type: biochemical; details: recombinant His-tagged enzyme; 10 min incubation at 37°C; 50 μM NCF
Procedure: as §2

[13] = biological target: T9, BKC-1 (Klebsiella pneumoniae, UniProt A0A0F6QEY8); experiment: as above; assay type: biochemical; details: recombinant His-tagged enzyme; 10 min incubation at 37°C; 25 μM NCF
Procedure: as §2

[14] = biological target: T10, NDM-1 (Klebsiella pneumoniae, UniProt C7C422); experiment: as above; assay type: biochemical
T10 construct: His tag; purchased Emerald Biostructures (Bainbridge Island, WA)
Procedure: as §2

[15] = biological target: T11, CTX-M-15 (Escherichia coli, UniProt Q9EXV5); experiment: as above; assay type: biochemical; details: recombinant His-tagged enzyme; 10 min incubation at 37°C; 50 μM NCF
T11 construct: His tag; purchased Emerald Biostructures (Bainbridge Island, WA)
Procedure: as §2

[16] = biological target: T12, SME-2 (Serratia marcescens, UniProt P52682, V207Q); experiment: koff of enzyme activity recovery, jump dilution method; assay type: biochemical, S. marcescens
Procedure: (§3) After appropriate dilution, 100 μM NCF was added to the reaction mixture, and absorbance at 490 nm was recorded every 10 s using a plate reader. The reaction without the addition of BLI was also recorded and used to calculate uninhibited enzyme velocity Vs.
(§4) Purified enzyme at 1 μM in reaction buffer was mixed with BLIs at an 8-fold higher concentration than its stoichiometry ratio (determined in preliminary stoichiometry experiments). After 30 min incubation at 37°C, the reaction mixture was diluted from 100- to 30,000-fold depending on the enzyme in reaction buffer, and 100 μl of diluted enzyme was mixed with 100 μl of 400 μM NCF in reaction buffer. The absorbance at 490 nm was recorded every minute during 4 h at 37°C.

[17] = biological target: T12, SME-2; experiment: Kiapp determination with nitrocefin (method of Waley); assay type: biochemical, S. marcescens; details: recombinant His-tagged enzyme; 10 min incubation at 37°C; 50 μM NCF
Procedure: as §2

[18] = biological target: T7, SHV-12; experiment: Inactivation kinetic profile, reporter substrate method; assay type: biochemical; details: precluded k2/K calculation
Procedure: as §1

[19] = biological target: TEM-43 (Escherichia coli, UniProt P62593, E102K/M180T/R162H); experiment: as above; assay type: biochemical; details: precluded k2/K calculation
Procedure: as §1

[20] = biological target: T1, KPC-2; experiment: koff of enzyme activity recovery, jump dilution method; assay type: biochemical; details: calculated using k2/K and koff
Procedure: as §3, §4

[21] = biological target: T2, AmpC; experiment: as above; assay type: biochemical; details: calculated using k2/K and koff
Procedure: as §3, §4

[22] = biological target: T4, FRI-1; experiment: as above; assay type: biochemical; details: calculated using k2/K and koff
Procedure: as §3, §4

[23] = biological target: T8, KPC-3; experiment: as above; assay type: biochemical
Procedure: as §3, §4

[24] = biological target: T9, BKC-1; experiment: as above; assay type: biochemical; details: calculated using k2/K and koff
Procedure: as §3, §4

[25] = biological target: T11, CTX-M-15; experiment: as above; assay type: biochemical; details: calculated using k2/K and koff
Procedure: as §3, §4

[26] = 1.2 nM KPC-2, 100 μM NCF reporter substrate
[27] = recombinant His-tagged enzyme, 10 min incubation at 37°C, 50 μM NCF

With `O=Cc1ccccc1B(O)O` [2-formylphenylboronic acid] as the molecule, how does the “KPC-2 inactivation kinetic profile” value [1, 26] read?
The value was “linear KPC-2 inactivation profile”.

For `O=C(Cc1cccs1)N[C@@H](Cn1cc(C(=O)O)nn1)B(O)O` [S02030], which “potency (in words)” value [2] is on record?
The value was “nanomolar potency”.

With `Cc1cccc(B(O)O)c1` [m-tolylboronic acid] as the molecule, how does the “KPC-2 inactivation kinetic profile” value [1] read?
Its value is “linear KPC-2 inactivation profile”.

What does the source list for `C[C@]1(Cn2ccnn2)[C@H](C(=O)O)N2C(=O)C[C@H]2S1(=O)=O` [tazobactam, reference compound]?
degradation of inhibitor by KPC-2 ([3]; same conditions, in 1 hour (data not shown)): completely degraded; KPC-2 inactivation kinetic profile [1, 26]: progressive enzyme activity inactivation

What does the source list for `O=C(O)C[C@@H]1CC[C@H](NC(=O)Cc2cccs2)B(O)O1` [vaborbactam]?
Ki [4]: 56 ± 15 nM; Ki [5]: 66000 ± 11000 nM; Ki [6]: 35 ± 15 nM; Ki [7]: 33 ± 13 nM; Ki [8]: 170 ± 60 nM; inhibition of enzyme (in words) ([9]; class B metalloenzyme): No inhibition; Ki [9, 27]: > 160000 nM; Ki [10]: 14000 ± 5000 nM; Ki [11]: 21 ± 4 nM; Ki [12]: 50 ± 16 nM; Ki [13]: 18 ± 2 nM; inhibition of enzyme (in words) ([14]; class B metalloenzyme): No inhibition; Ki [14, 27]: > 160000 nM; Ki [15]: 30 ± 4 nM; Kd [16]: 47 nM; Ki [17]: 42 ± 5 nM; inactivation kinetic profile [18]: linear inactivation profiles; inactivation kinetic profile [19]: linear inactivation profiles; degradation/hydrolysis of inhibitor by KPC-2 [3]: no degradation; degradation/hydrolysis of inhibitor by KPC-2 ([3]; listed as Vaborbactam): not hydrolyzed; KPC-2 inactivation kinetic profile [1, 26]: slow onset of inhibition and nonlinear reaction profiles; Kd [20]: 7.8 nM; Kd [21]: 220 nM; Kd [22]: 509 nM; Kd [23]: 4.4 nM; Kd [24]: 33 nM; Kd [25]: 40 nM
